Laboratory results published in ChEMBL document CHEMBL5316313, “Discovery of Novel 3-Phenylpiperidine Derivatives Targeting the β-Catenin/B-Cell Lymphoma 9 Interaction as a Single Agent and in Combination with the Anti-PD-1 Antibody for the Treatment of Colorectal Cancer” (J Med Chem, 2023).
Calls of active or inactive are those of the source. No cut-off for these calls is given here.

Legend:
RKO = test: Antiproliferative activity against Wnt-independent human RKO cells assessed as cell growth inhibition at 40 uM incubated for 48 hrs by CellTiter-Glo assay; type: functional, cell-based
CT26 [1] = test: Induction of apoptosis in Wnt-dependent mouse CT26 cells assessed as early apoptotic cells at 10 uM incubated for 24 hrs by Annexin V-Alexa Fluor 647/PI staining based flow cytomtery (Rvb=18.3%); type: functional
CT26 [2] = test: Synergistic antitumor activity in mouse CT26 cells xenografted in BALB/c mouse assessed as increase in GZMB mRNA expression level in tumor at 30 mg/kg, ip QD in presence of anti-PD-1 antibody cotreatment at 10 mg/kg,ip BIW by qRT-PCR analysis; type: functional, organism-based
[3] = Microsomal stability in mouse liver microsomes assessed as half life at […] and measured upto 60 mins by LC-MS/MS analysis; type: ADME, Microsome
HCT-116 = test: Induction of apoptosis in Wnt-dependent human HCT-116 cells assessed as viable cells at 20 uM incubated for 24 hrs by Annexin V-Alexa Fluor 647/PI staining based flow cytomtery (Rvb=69.5%); type: functional; conditions: read-out: Activity
HEK293 = test: Induction of apoptosis in Wnt-independent human HEK293 cells assessed as necrotic cells at 10 uM incubated for 24 hrs by Annexin V-Alexa Fluor 647/PI staining based flow cytomtery (Rvb=1.82%); type: functional

With `CC(C)c1ccc(-c2cccc(S(=O)(=O)N3CCCC(c4cccc(OC(C)(C)C(=O)NS(=O)(=O)c5ccc(C(F)(F)F)cc5)c4)C3)c2)cc1` (stereo unspecified) the Activity (RKO) was “inactive”, the Activity (CT26 [1]) was 24% and the Activity (CT26 [2]) was “Active”. It also gave a half-life [3] of 20.9 min, a viability at 20 µM (HCT-116) of 37.3% and an Activity (HEK293) of 2.28%.
